From PMC6471591, “Preparation of Sesquiterpene Lactone Derivatives: Cytotoxic Activity and Selectivity of Action” (Molecules, 2019)
Where two headings read alike, the source gives them in different places.

Columns and labels:
[1] = Cytotoxicity on primary cell culture (propidium iodide, flow cytometry); type: cell-based
Protocol: The cytotoxicity of the sesquiterpene lactones and its derivatives was evaluated using mouse splenocytes. […] Cumanin derivatives (4–11) have shown CC50 values and selectivity indexes higher than natural compound 1. […] The incorporation of two triazole groups in cumanin (1) reduced cytotoxicity on normal cells and improved selectivity against tumor cell lines.
In a 96-well plate, spleen cells from Balb/c mouse (1.5 × 10^5) were incubated with different drug dilutions (200, 100, 50, 10, and 5 μg/mL) in RPMI medium containing 10% fetal calf serum. After 48 h of incubation at 37 °C (5% CO2), cells were harvested, washed once with PBS, and stained with 2.5 μg/mL propidium iodide (PI) for 5 min at room temperature. Subsequently, cell death was assessed by flow cytometry using a BD FACSaria II cytometer. Cells incubated only with a drug vehicle were used as a 100% viability control and death percentage was calculated according to the following formula: Death(%)=[1−(%PI^−cells)drug−treated/(%PI^−cells)100% viability control]×100.
Then the concentration capable of causing cell death in 50% of splenocytes (CC50) was determined using a non-linear regression approach.

[2] = tested on: human solid tumor cell lines (A549, HBL-100, HeLa, SW1573, T-47D, WiDr); assay: Antiproliferative SRB assay, whole panel of tumor cell lines; type: cell-based; conditions: for antiproliferative activity in words: tumor cell line panel, compared to cumanin (1); for GI50: Homo sapiens, all tested tumor cell lines, SRB, 48 h, read-out: GI50 values, range over all tested cell lines
Protocol: (§1) In vitro antiproliferative activity was evaluated using the protocol of the National Cancer Institute (NCI) after 48 h of drug exposure using the sulforhodamine B (SRB) assay. […] We cannot discard that increasing lipophilicity may well result in an increase in cytotoxicity in vitro.
(§2) The following human solid tumor cell lines were used in this study: HBL-100 (breast), HeLa (cervix), SW1573 (non-small cell lung), T-47D (breast), A549 (lung), and WiDr (colon). Cells were maintained in 25 cm^2 culture flasks in RPMI 1640 supplemented with 5% heat-inactivated fetal calf serum and 2 mM L-glutamine in a 37 °C, 5% CO2, 95% humidified air incubator. Exponentially growing cells were trypsinized and resuspended in antibiotic containing medium (100 units penicillin G and 0.1 mg of streptomycin per mL). Single-cell suspensions displaying >97% viability by trypan blue dye exclusion test were subsequently counted. After counting, dilutions were made to give the appropriate cell densities for inoculation onto 96-well microtiter plates. Cells were inoculated in a volume of 100 μL per well at densities of 20,000 (WiDr), 15,000 (T-47D and A549), and 10,000 (HeLa, SW1573, and HBL-100) cells per well, based on their doubling times.
(§3) Chemosensitivity tests were performed using the SRB assay of the NCI with slight modifications. Briefly, pure compounds were initially dissolved in DMSO at 400 times the desired final maximum test concentration. Control cells were exposed to an equivalent concentration of DMSO (0.25% v/v, negative control). Each agent was tested in triplicate at different dilutions in the range 1–100 μM. Drug treatment started on day 1 after plating. Drug incubation periods were 48 h, after which cells were precipitated with 25 μL of ice-cold 50% (w/v) trichloroacetic acid and fixed for 60 min at 4 °C. Then, the SRB assay was performed. Optical density (OD) of each well was measured at 492 nm, using BioTek’s PowerWave XS Absorbance Microplate Reader (Highland Park, Winooski, VT, USA). Values were corrected for background OD from wells containing only culture medium. The percentage growth (PG) was calculated with respect to untreated control cells (C) at each level of drug concentrations based on the difference in OD at the start time (T0) and at the end of drug exposure (T), according to NCI formulas. Therefore, if T is greater than or equal to T0, the calculation is 100 × [(T–T0)/(C–T0)]. If T is lower than T0, denoting cell death, the calculation is 100 × [(T–T0)/(T0)]. The effect is defined as the growth percentage, where 50% growth inhibition (GI50) represents the concentration at which PG is +50. Based on these calculations, a PG value of 0 corresponds to the number of cells present at the beginning of drug exposure, while negative PG values denote net cell death.

HBL100 cells [3] = assay: Antiproliferative SRB assay (NCI protocol), 48 h; type: cell-based; conditions: Homo sapiens, HBL-100; HBL100 (breast), SRB, 48 h drug exposure; read-out: 50% growth inhibition (GI50) ± SD, HBL100
Protocol: as §1, §2, §3

A549 cells [4] = assay: Antiproliferative SRB assay (NCI protocol), 48 h; type: cell-based; conditions: Homo sapiens; A549 (lung), SRB, 48 h drug exposure; read-out: 50% growth inhibition (GI50) ± SD, A549
Protocol: as §1, §2, §3

HeLa cells [5] = assay: Antiproliferative SRB assay (NCI protocol), 48 h; type: cell-based; conditions: Homo sapiens; HeLa (cervix), SRB, 48 h drug exposure; read-out: 50% growth inhibition (GI50) ± SD, HeLa
Protocol: as §1, §2, §3

HeLa cells [6] = assay: Antiproliferative SRB assay (NCI protocol), 48 h; type: cell-based, human; conditions: splenocyte CC50 versus HeLa GI50
A549 cells [7] = assay: Antiproliferative SRB assay (NCI protocol), 48 h; type: cell-based, human; conditions: splenocyte CC50 versus A549 GI50
SW1573 cells = assay: Antiproliferative SRB assay (NCI protocol), 48 h; type: cell-based, human; conditions: for GI50: Homo sapiens, SW1573 (non-small cell lung), SRB, 48 h drug exposure, read-out: 50% growth inhibition (GI50) ± SD, SW1573; for Selectivity Index, SW1573: splenocyte CC50 versus SW1573 GI50
Protocol: as §1, §2, §3

T47-D cells = assay: Antiproliferative SRB assay (NCI protocol), 48 h; type: cell-based, human; conditions: for GI50: Homo sapiens, T47D, T47-D (breast), SRB, 48 h drug exposure, read-out: 50% growth inhibition (GI50) ± SD, T47-D; for Selectivity Index, T47-D: splenocyte CC50 versus T47-D GI50
Protocol: as §1, §2, §3

WiDr cells = assay: Antiproliferative SRB assay (NCI protocol), 48 h; type: cell-based, human; conditions: for GI50: Homo sapiens, WiDr (colon), SRB, 48 h drug exposure, read-out: 50% growth inhibition (GI50) ± SD, WiDr; for Selectivity Index, WiDr: splenocyte CC50 versus WiDr GI50
Protocol: as §1, §2, §3

HBL100 cells [8] = assay: Antiproliferative SRB assay (NCI protocol), 48 h; type: cell-based, human; conditions: splenocyte CC50 versus HBL100 GI50

| SMILES | CC50 at 48 h ([1]; primary mouse splenocytes (spleen cells), Balb/c mouse spleen cells, 48 h incubation, PI staining, read-out: CC50 ± SD, splenocytes (concentration that causes 50% cell death)) | antiproliferative activity in words [2] | GI50 (HBL100 cells [3]) | GI50 (A549 cells [4]) | GI50 (HeLa cells [5]) | Selectivity Index, HeLa (HeLa cells [6]) | Selectivity Index, A549 (A549 cells [7]) | GI50 (SW1573 cells) | Selectivity Index, SW1573 (SW1573 cells) | GI50 (T47-D cells) | Selectivity Index, T47-D (T47-D cells) | GI50 (WiDr cells) | Selectivity Index, WiDr (WiDr cells) | Selectivity Index, HBL100 (HBL100 cells [8]) | CC50 at 48 h ([1]; Balb/c, mouse) | GI50 [2] |
| --- | --- | --- | --- | --- | --- | --- | --- | --- | --- | --- | --- | --- | --- | --- | --- | --- |
| C=C1C(=O)OC2CC(C)C3CC(OCc4cn(Cc5ccccc5)nn4)C(O)C3(C)CC12 (stereo not shown) [Compound 10] | 114000 nM | moderate activity | 29000 nM | 18000 nM | 32000 nM | 3.5 | 6.3 | 32000 nM | 3.5 | 37000 nM | 3.1 | 30000 nM | 3.8 | 3.9 | – | – |
| C=C1C(=O)O[C@@H]2C[C@@H](C)[C@@H]3C=CC(=O)[C@@]3(C)[C@@H](O[Si](C)(C)C)[C@H]12 [Compound 13] | – | – | 360 nM | 590 nM | 190 nM | 5.8 | 1.9 | 280 nM | 3.9 | 290 nM | 3.8 | 560 nM | 2.0 | 3.0 | 1100 nM | 150 to 590 nM |
| C#CCOC1CC2C(C)CC3OC(=O)C(=C)C3CC2(C)C1OCC#C (stereo not shown) [Compound 9] | – | moderate activity | 19000 nM | 17000 nM | 24000 nM | 3.9 | 5.5 | 20000 nM | 4.7 | 24000 nM | 3.9 | 2100 nM | 44.5 | 4.9 | – | – |
| C=C1C(=O)O[C@@H]2C[C@@H](C)[C@@H]3C=CC(=O)[C@@]3(C)[C@@H](O[Si](C)(C)C(C)C)[C@H]12 [Compound 14] | – | – | 200 nM | 280 nM | 150 nM | 9.3 | 5.0 | 190 nM | 7.4 | 360 nM | 3.9 | 260 nM | 5.4 | 7.0 | 1400 nM | 150 to 590 nM |
